Assay results as given in patent US20240116985A1, “STAPLED PEPTIDES AND METHODS THEREOF” (priority 2020, published 2024).
Like-named read-outs stand apart in the source and are kept apart here.

Assays:
[1] = biological target: T1, full-length beta-Catenin (Uniprot ID P35222) (Homo sapiens, UniProt P35222); assay: Fluorescence polarization IC50 (beta-catenin / 5FAM-TCF4 10-53 competition); format: binding; settings: fluorescence polarization; read-out: beta-Catenin FP IC50
T1 construct: 10 nM full-length beta-Catenin (Uniprot ID P35222)
T1 sequence (P35222 1-781): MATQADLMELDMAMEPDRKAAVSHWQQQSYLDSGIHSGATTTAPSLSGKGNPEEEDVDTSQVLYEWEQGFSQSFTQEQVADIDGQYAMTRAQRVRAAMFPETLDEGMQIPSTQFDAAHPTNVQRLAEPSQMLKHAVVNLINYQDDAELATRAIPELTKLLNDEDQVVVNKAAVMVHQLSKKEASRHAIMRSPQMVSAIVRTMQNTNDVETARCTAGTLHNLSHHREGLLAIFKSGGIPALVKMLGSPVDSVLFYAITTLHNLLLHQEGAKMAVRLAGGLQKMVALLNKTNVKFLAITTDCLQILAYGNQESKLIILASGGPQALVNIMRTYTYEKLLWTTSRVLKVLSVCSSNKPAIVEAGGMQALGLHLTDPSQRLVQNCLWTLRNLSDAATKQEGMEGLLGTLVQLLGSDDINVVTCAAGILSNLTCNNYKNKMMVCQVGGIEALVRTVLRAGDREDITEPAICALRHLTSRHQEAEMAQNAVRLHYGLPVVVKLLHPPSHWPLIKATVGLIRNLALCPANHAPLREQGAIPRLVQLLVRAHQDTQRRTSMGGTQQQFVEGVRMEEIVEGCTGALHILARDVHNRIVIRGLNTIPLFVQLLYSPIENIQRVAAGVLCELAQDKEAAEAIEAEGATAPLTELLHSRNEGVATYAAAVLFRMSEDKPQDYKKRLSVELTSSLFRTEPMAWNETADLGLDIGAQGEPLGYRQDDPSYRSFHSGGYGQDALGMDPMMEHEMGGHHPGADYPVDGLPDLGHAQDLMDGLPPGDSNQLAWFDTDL

[2] = biological target: T2, beta-catenin/TCF4 engagement (Homo sapiens, UniProt P35222); assay: Nano-BRET target engagement assay (B-cat-Halo & TCF4-Luc in HEK293 cells); format: cell-based; settings: read-out: NanoBRET Abs IC50
T2 construct: expressed in transfected cells; host or cells: HEK293
T2 sequence (P35222 1-781): T1 sequence (P35222 1-781)

Row | SMILES | IC50 [1] | IC50 ([2]; absolute IC50) | IC50 [2]
1 | CC(=O)N1CCC[C@]12CC=CCCCC1(CCCC=CCCCOC(=O)N3CC[C@@](C(=O)N[C@@H](Cc4ccsc4)C(=O)N[C@@H](Cc4csc5ccccc45)C(=O)N[C@@H](CCC(=O)N4CCN(CCCN(C)C)CC4)C(N)=O)(C3)NC(=O)[C@H](CC(C)C)NC(=O)[C@H](Cc3ccccc3)NC(=O)[C@H](C)NC(=O)[C@H](C)NC(=O)[C@H](CN(CC(=O)O)CC(F)(F)F)NC(=O)[C@H](CC(=O)O)NC1=O)NC(=O)[C@H](CC(C)(C)C)NC(=O)[C@H](CC(=O)O)NC2=O (stereo partly drawn) [I-1799, Ac-PL3-Asp-Npg-B5-Asp-TfeGA-Ala-Ala-Phe-Leu-PyrS2-3Thi-BztA-[Me2NPrPip]GlnR-NH2] | 8 nM | 25800 nM | 
2 | CCSSCCOC(=O)C[C@@H]1NC(=O)[C@]2(CC=CCCCC3(CCCC=CCCCOC(=O)N4CC[C@@](C(=O)N[C@@H](Cc5ccsc5)C(=O)N[C@@H](Cc5csc6ccccc56)C(=O)N[C@@H](CCC(N)=O)C(N)=O)(C4)NC(=O)[C@H](CC(C)C)NC(=O)[C@H](Cc4ccccc4)NC(=O)[C@H](C)NC(=O)[C@H](C)NC(=O)[C@H](CC(=O)O)NC(=O)[C@H](CC(=O)O)NC3=O)NC(=O)[C@H](CC(C)(C)C)NC1=O)CCCN2C(C)=O (stereo partly drawn) [I-1963, Ac-PL3-[EtSSEt]AspE-Npg-B5-Asp-Asp-Ala-Ala-Phe-Leu-PyrS2-3Thi-BztA-Gln-NH2] | 326 nM |  | 25600 nM
3 | CC(=O)N1CCC[C@]12CC=CCCCC1(CCCC=CCCCOC(=O)N3CC[C@@](C(=O)N[C@@H](Cc4ccsc4)C(=O)N[C@@H](Cc4csc5ccccc45)C(=O)N[C@@H](CCC(N)=O)C(N)=O)(C3)NC(=O)[C@H](CC(C)C)NC(=O)[C@H](Cc3ccccc3)NC(=O)[C@H](CCCCNC(=O)COCCOCCNC(=O)CC[C@@H](C)[C@H]3CC[C@H]4[C@@H]5CC[C@@H]6C[C@H](O)CC[C@]6(C)[C@H]5CC[C@]34C)NC(=O)[C@H](C)NC(=O)[C@H](CC(=O)O)NC(=O)[C@H](CC(=O)O)NC1=O)NC(=O)[C@H](CC(C)(C)C)NC(=O)[C@H](CC(=O)O)NC2=O (stereo partly drawn) [I-1474, Ac-PL3-Asp-Npg-B5-Asp-Asp-Ala-[lithocholate-PEG2]-Lys-Phe-Leu-PyrS2-3Thi-BztA-Gln-NH2] | 41 nM | > 20000 nM | 
4 | CC[C@@H]1NC(=O)[C@H](Cc2ccccc2)NC(=O)[C@H](C)NC(=O)C(C)(C)NC(=O)[C@H](Cc2cccc(C(=O)O)c2)NC(=O)[C@H](CC(=O)O)NC(=O)C2(CCCC=CCCCOC(=O)N3CC[C@@](C(=O)N[C@@H](Cc4ccsc4)C(=O)N[C@@H](Cc4csc5ccccc45)C(=O)N[C@@H](CCC(=O)N4CCOCC4)C(N)=O)(C3)NC1=O)CCCC=CC[C@]1(CCCN1C(C)=O)C(=O)N[C@@H](CC(=O)O)C(=O)N[C@@H](CC(C)(C)C)C(=O)N2 (stereo partly drawn) [I-2558, Ac-PL3-Asp-Npg-B5-Asp-3COOHF-Aib-Ala-Phe-Abu-PyrS2-3Thi-BztA-[Morph]GlnR-NH2] | 7 nM | 14700 nM | 
5 | CCNC(=O)CC[C@@H]1NC(=O)[C@H](Cc2cccc(C(=O)O)c2)NC(=O)[C@H](CC(=O)O)NC(=O)C2(CCCC=CCCCOC(=O)N3CC[C@@](C(=O)N[C@@H](Cc4ccsc4)C(=O)N[C@@H](Cc4csc5ccccc45)C(=O)N[C@@H](C)C(N)=O)(C3)NC(=O)[C@H](C(C)C)NC(=O)[C@H](Cc3ccccc3)NC(=O)[C@H](C)NC1=O)CCCC=CC[C@]1(CCCN1C(C)=O)C(=O)N[C@@H](CC(=O)O)C(=O)N[C@@H](CC(C)(C)C)C(=O)N2 (stereo partly drawn) [I-2302, Ac-PL3-Asp-Npg-B5-Asp-3COOHF-[NHEt]GlnR-Ala-Phe-Val-PyrS2-3Thi-BztA-Ala-NH2] | 5 nM | 2500 nM | 
6 | CC(=O)N1CCC[C@]12CC=CCCCC1(CCCC=CCCCOC(=O)N3CC[C@@](C(=O)N[C@@H](Cc4ccsc4)C(=O)N[C@@H](Cc4ccc(Cl)cc4)C(=O)N[C@@H](C)C(N)=O)(C3)NC(=O)[C@H](C(C)C)NC(=O)[C@H](Cc3ccccc3)NC(=O)[C@H](C)NC(=O)[C@H](CCC(N)=O)NC(=O)[C@H](Cc3cccc(C(=O)O)c3)NC(=O)[C@H](CC(=O)O)NC1=O)NC(=O)[C@H](CC(C)(C)C)NC(=O)[C@H](CC(=O)O)NC2=O (stereo partly drawn) [I-2221, Ac-PL3-Asp-Npg-B5-Asp-3COOHF-Gln-Ala-Phe-Val-PyrS2-3Thi-4C1F-Ala-NH2] | 11 nM | 5000 nM | 
7 | CC(=O)N1CCC[C@]12CC=CCCCC1(CCCC=CCCCOC(=O)N3CC[C@@](C(=O)N[C@@H](Cc4ccccc4C#N)C(=O)N[C@@H](Cc4csc5ccccc45)C(=O)N[C@@H](CCC(N)=O)C(N)=O)(C3)NC(=O)[C@H](CC(C)C)NC(=O)[C@H](Cc3ccccc3)NC(=O)[C@H](C)NC(=O)[C@H](C)NC(=O)[C@H](CN(CC(=O)O)CC(F)(F)F)NC(=O)[C@H](CC(=O)O)NC1=O)NC(=O)[C@H](CC(C)(C)C)NC(=O)[C@H](CC(=O)O)NC2=O (stereo partly drawn) [I-1702, Ac-PL3-Asp-Npg-B5-Asp-TfeGA-Ala-Ala-Phe-Leu-PyrS2-2CNF-BztA-Gln-NH2] | 17 nM | 6900 nM | 
8 | CC(=O)N1CCC[C@]12CC=CCCCC1(CCCC=CCCCOC(=O)N3CC[C@@](C(=O)N[C@@H](Cc4ccccc4Cl)C(=O)N[C@@H](Cc4csc5ccccc45)C(=O)N[C@@H](CCC(N)=O)C(N)=O)(C3)NC(=O)[C@H](CC(C)C)NC(=O)[C@H](Cc3ccccc3)NC(=O)[C@H](C)NC(=O)[C@H](C)NC(=O)[C@H](CN(CC(=O)O)CC(F)(F)F)NC(=O)[C@H](CC(=O)O)NC1=O)NC(=O)[C@H](CC(C)(C)C)NC(=O)[C@H](CC(=O)O)NC2=O (stereo partly drawn) [I-1833, Ac-PL3-Asp-Npg-B5-Asp-TfeGA-Ala-Ala-Phe-Leu-PyrS2-2C1F-BztA-Gln-NH2] | 26 nM | 6900 nM | 
9 | CC(=O)N1CCC[C@]12CC=CCCCC1(CCCC=CCCCOC(=O)N3CC[C@@](C(=O)N[C@@H](Cc4ccsc4)C(=O)N[C@@H](Cc4csc5ccccc45)C(=O)N[C@@H](CCC(N)=O)C(N)=O)(C3)NC(=O)[C@H](CC(C)C)NC(=O)[C@H](Cc3ccccc3)NC(=O)[C@H](CCN3CCC(F)(F)CC3)NC(=O)[C@H](C)NC(=O)[C@H](CC(=O)O)NC(=O)[C@H](CC(=O)O)NC1=O)NC(=O)[C@H](CC(C)(C)C)NC(=O)[C@H](CC(=O)O)NC2=O (stereo partly drawn) [I-1505, Ac-PL3-Asp-Npg-B5-Asp-Asp-Ala-F2PipAbu-Phe-Leu-PyrS2-3Thi-BztA-Gln-NH2] | 39 nM | > 20000 nM | 
10 | CC(=O)N1CCC[C@]12CC=CCCCC1(CCCC=CCCCOC(=O)N3CC[C@@](C(=O)N[C@@H](Cc4ccccc4Cl)C(=O)N[C@@H](Cc4csc5ccccc45)C(=O)N[C@@H](CC(C)C)C(N)=O)(C3)NC(=O)[C@H](CC(C)C)NC(=O)[C@H](Cc3ccccc3)NC(=O)[C@H](C)NC(=O)[C@H](CCCCNC(C)C)NC(=O)[C@H](CC(=O)O)NC(=O)[C@H](CC(=O)O)NC1=O)NC(=O)[C@H](CC(C)(C)C)NC(=O)[C@H](CC(=O)O)NC2=O (stereo partly drawn) [I-1277, Ac-PL3-Asp-Npg-B5-Asp-Asp-iPrLys-Ala-Phe-Leu-PyrS2-2C1F-BztA-Leu-NH2] | 17 nM | > 20000 nM | 
11 | CC(=O)N1CCC[C@]12CC=CCCCC1(CCCC=CCCCOC(=O)N3CC[C@@](C(=O)N[C@@H](Cc4ccsc4)C(=O)N[C@@H](Cc4cccc(Cl)c4)C(=O)N[C@@H](CCC(N)=O)C(N)=O)(C3)NC(=O)[C@H](CC(C)C)NC(=O)[C@H](Cc3ccccc3)NC(=O)[C@H](C)NC(=O)[C@H](C)NC(=O)[C@H](Cc3cccc(C(=O)O)c3)NC(=O)[C@H](CC(=O)O)NC1=O)NC(=O)[C@H](CC(C)(C)C)NC(=O)[C@H](CC(=O)O)NC2=O (stereo partly drawn) [I-2224, Ac-PL3-Asp-Npg-B5-Asp-3COOHF-Ala-Ala-Phe-Leu-PyrS2-3Thi-3C1F-Gln-NH2] | 14 nM | 14200 nM | 
12 | CC(=O)N1CCC[C@]12CC=CCCCC1(CCCC=CCCCOC(=O)N3CC[C@@](C(=O)N[C@@H](Cc4ccsc4)C(=O)N[C@@H](Cc4csc5ccccc45)C(=O)N[C@@H](CCC(N)=O)C(N)=O)(C3)NC(=O)[C@H](CC(C)C)NC(=O)[C@H](Cc3ccccc3)NC(=O)[C@H](C)NC(=O)[C@H](C)NC(=O)[C@H](CCC(=O)O)NC(=O)[C@H](CC(=O)O)NC1=O)NC(=O)[C@H](CC(C)(C)C)NC(=O)[C@H](CC(=O)O)NC2=O (stereo partly drawn) [I-1437, Ac-PL3-Asp-Npg-B5-Asp-Glu-Ala-Ala-Phe-Leu-PyrS2-3Thi-BztA-Gln-NH2] | 7 nM | 7100 nM | 
13 | CC(=O)N1CCC[C@]12CC=CCCCC1(CCCC=CCCCCCC[C@@](C)(C(=O)N[C@@H](Cc3ccccc3)C(=O)N[C@@H](Cc3csc4ccccc34)C(=O)N[C@@H](CCC(N)=O)C(N)=O)NC(=O)[C@H](CCC(N)=O)NC(=O)[C@H](Cc3ccccc3)NC(=O)[C@H](C)NC(=O)[C@H](C)NC(=O)[C@H](CCC(=O)O)NC(=O)[C@H](CC(=O)O)NC1=O)NC(=O)[C@H](CC(N)=O)NC(=O)[C@H](CC(=O)O)NC2=O (stereo partly drawn) [I-1531, Ac-PL3-Asp-Asn-B5-Asp-Glu-Ala-Ala-Phe-Gln-S8-Phe-BztA-Gln-NH2] | 84 nM | > 20000 nM | 
